Results on two compounds are retold here after patent US20220260574A1, “METHODS OF DETERMINING THERAPIES BASED ON SINGLE CELL CHARACTERIZATION OF CIRCULATING TUMOR CELLS (CTCS) IN METASTATIC DISEASE” (Epic Sciences, Inc., priority 2017, published 2022).

Like-named read-outs stand apart in the source and are kept apart here.

Experiment [1] relates to mCRPC patients. In words: Single CTC sequencing of a 2nd line post taxane patient treated with enzalutamide. Type of experiment: in vivo, human. Particulars: 2nd line post taxane patient with lack of clonal diversity.
Source text: Phlebotomy samples were obtained at a Decision Point in management: therapy was chosen by the treating physician. Standard of care collection from 221 mCRPC patients at decision points. Baseline blood draw prior to A, E or T. Followed by PSA, time on drug, radiographic progression free (rPFS) & overall survival (OS). 9225 CTCs identified and characterized phenotypically. 741 CTCs from 31 patients were studied by whole genome CNV for clonality and gene amplifications/deletions. Patients were ranked based on how heterogeneous or diverse the cells were at each decision point. […] After a CTC is phenotypically measured, the coverslip is removed and the individual CTC is aspirated and put into an individual tube. The CTCs are amplified and prepared for sequencing (FIG. 15). Following sequencing informatics were performed to assess clonality and amplification/deletions (FIG. 15). […] Each patient sample was analyzed separately. Single CTC genomic CNV plots were curated individually versus other CTCs in patient sample. Clonality was characterized based on large genomic variations and focal amplifications or deletion of known driver alterations in at least 2 CTCs, for example, two cells from same patient with or without a loss of chromosome 5q or two clones from a patient with and without AR amplification (FIG. 16).
Experiment [2] deals with mCRPC patients.
Experiment [3] relates to mCRPC patients. Kind of experiment: Carboplatin therapy in mCRPC patients with high vs low pLST baseline CTCs (PSA response). Type of experiment: in vivo, human.
The mark [4] stands for this setting: patients without vs with the presence of cell type K.
The mark [5] stands for this setting: one 8th line mCRPC patient with 4.3% baseline CTCs as high pLST.
The mark [6] stands for this setting: one 10th line mCRPC patient with 96% baseline CTCs as high pLST.

On to `CNC(=O)c1ccc(N2C(=S)N(c3ccc(C#N)c(C(F)(F)F)c3)C(=O)C2(C)C)cc1F` [enzalutamide], for which the response to therapy entry with mCRPC patients [1] is “responded”. In the experiment with mCRPC patients [2] (all patients, Abi vs Enza), the “Time on therapy (Tx)” value was “similar” and the “overall survival (OS)” value was “similar”. Also, the “radiographic Progression Free Survival (rPFS)” value in the experiment with mCRPC patients [2] (all patients, Enza vs Abi, p=0.025) is given as “significantly better”. Also, the “HR (hazards of death, overall survival), feature Therapy” value with mCRPC patients [2] (multivariate cox model, =0 if Abi, =1 if Enza, p 0.4167) is 0.6543. The “HR (hazards of death, overall survival), feature Cell Type K: Therapy Interaction” value with mCRPC patients [2] (multivariate cox model, =0 if not K+ and Enza, =1 if K+ and Enza, p 0.0306) is given as 5.2792. For the same compound, the “hazards of death, therapy favoured in multivariate cox proportional hazards model” value in the experiment with mCRPC patients [2] (patients without the presence of cell type K) is “more favorable”. Further, in the experiment on mCRPC patients [2] (patients without the presence of cell type K, Enza vs Abi), the OS entry is recorded as “no difference”. Besides, the rPFS result with mCRPC patients [2] (patients without the presence of cell type K, Enza vs Abi, p=0.006) was “significantly better”. In addition, in the experiment on mCRPC patients [2] (setting [4]), the OS result is “significant improvement”, the “Time on Tx” value is recorded as “significant improvement” and the rPFS entry is recorded as “significant improvement”.

In the case of `N.N.O=C([O-])C1(C(=O)[O-])CCC1.[Pt+2]` [carboplatin], the “12 week PSA change” value in the experiment with mCRPC patients [3] (setting [5]) is “+2.1%”; with mCRPC patients [3] (setting [6]), −50.1%. Further, the “response to carboplatin therapy” value with mCRPC patients [3] (setting [5]) is “did not respond”; in the experiment on mCRPC patients [3] (setting [6]) it was “responded”.
